Test results from patent publication US11103518B2, “Prostate cancer treatment via synergistic inhibition of aryl hydrocarbon receptor (AhR) and SRC” (Clark Atlanta University, Inc., priority 2016, dated 2021).

Columns and labels:
[1] = tested on: AR; assay: qRT-PCR of AR mRNA expression in C4-2 cells; settings: 50 μM CH223191 or 30 μM PP2 alone or in combination, 72 h, normalized to L-19
Description: (§1) RNA Extraction and Quantitative qRT-PCR Analysis: Total RNA was isolated from cell monolayers grown in 100 mm tissue culture dishes using RNeasy Mini Kit (Qiagen). 2 μg of the total RNA was reverse-transcribed using the Superscript II kit (Invitrogen), according to the manufacturer's recommendations. The cDNA served as a template in a 25 μl reaction mixture and was processed using the following protocol: an initial denaturation at 95° C. for 3 min, followed by 39 amplification cycles (95° C. for 10 s and 55-65° C. for 30 s), 95° C. for 10 s, 65° C. for 5 s and 95° C. for 50 s. The 25 μl qPCR reaction mixture was mixed with GoTaq qPCR Master Mix (Promega). Melt curve analyses were performed after each run to ensure a single product. Relative gene expression was determined using the ΔΔCq calculation method.
(§2) Primers to amplify the 470-bp cDNA fragment encoding L19 were used as an internal control. L-19: Forward (5′-3′) [sequence] & Reverse (5′-3′) [sequence].
(§3) Each bar represents mean±SEM (n=3) and were analyzed by student t-test. (*) denotes statistically significant differences (*P<0.05) compared to control.

[2] = tested on: CYP1B1; assay: qRT-PCR of CYP1B1 mRNA expression in C4-2 cells; settings: 50 μM CH223191 or 30 μM PP2 alone or in combination, 72 h, normalized to L-19
Description: as §1, §2, §3

[3] = tested on: AR; assay: Cignal ARE luciferase reporter assay in C4-2 cells; format: cell-based, human; settings: C4-2 cells transfected with ARE reporter, FIG. 2B
Description: The Cignal XRE and ARE luciferase reporter assays were utilized to determine the activity of AhR and AR signaling pathways in androgen independent (C4-2) prostate cancer cells in the presence and absence of inhibitors. C4-2 cells were transfected with an XRE reporter plasmid & ARE reporter plasmid, as well as with positive and negative control reporter plasmids using attractene. Following transfection, treatments were added to each appropriate plate. A dual luciferase assay was performed and promoter activity values are expressed as arbitrary florescence units (AFU). Each bar represents mean±SEM (n=3) and were analyzed by student t-test. (*) denotes statistically significant differences (*P<0.0001).

[4] = tested on: AhR; assay: qRT-PCR of AhR mRNA expression in C4-2 cells; settings: 50 μM CH223191 or 30 μM PP2 alone or in combination, 72 h, normalized to L-19
Description: as §1, §2, §3

[5] = tested on: C4-2 prostate cancer cells; assay: Promega CellTiter 96 Cell Proliferation Assay; format: cell-based, human; settings: 50 μM CH223191, 30 μM PP2 alone or in combination
[6] = tested on: AR; assay: Nuclear and cytoplasmic fractionation with western blot, AR nuclear localization in C4-2 cells; format: cell-based, human; settings: nuclear fraction normalized with topoisomerase, FIG. 1B
Description: In order to address the role of AhR and SRC in this process, a sub-cellular localization was confirmed by immunoblotting following cellular fractionation. […] Cells were washed with cold PBS and cellular fractions were isolated per manufactures instructions using a NE-PER Extraction kit. The nuclear and cytoplasmic fractions were analyzed by western blotting for AhR and AR protein expression. The relative level of cytoplasmic AhR & AR were normalized with β-tubulin expression and the relative level of nuclear AhR & AR were normalized with topoisomerase expression. Blots are representative of three independent experiments.

[7] = tested on: C4-2 prostate cancer cells; assay: Cell cycle analysis; format: cell-based, human; settings: C4-2 cells, 72 hrs; 50 μM CH223191, 30 μM PP2 alone or in combination, FIG. 4B
[8] = biological target: T1, estrogen receptor (Homo sapiens, UniProt P03372); settings: cited from earlier work
T1 sequence (P03372 1-595): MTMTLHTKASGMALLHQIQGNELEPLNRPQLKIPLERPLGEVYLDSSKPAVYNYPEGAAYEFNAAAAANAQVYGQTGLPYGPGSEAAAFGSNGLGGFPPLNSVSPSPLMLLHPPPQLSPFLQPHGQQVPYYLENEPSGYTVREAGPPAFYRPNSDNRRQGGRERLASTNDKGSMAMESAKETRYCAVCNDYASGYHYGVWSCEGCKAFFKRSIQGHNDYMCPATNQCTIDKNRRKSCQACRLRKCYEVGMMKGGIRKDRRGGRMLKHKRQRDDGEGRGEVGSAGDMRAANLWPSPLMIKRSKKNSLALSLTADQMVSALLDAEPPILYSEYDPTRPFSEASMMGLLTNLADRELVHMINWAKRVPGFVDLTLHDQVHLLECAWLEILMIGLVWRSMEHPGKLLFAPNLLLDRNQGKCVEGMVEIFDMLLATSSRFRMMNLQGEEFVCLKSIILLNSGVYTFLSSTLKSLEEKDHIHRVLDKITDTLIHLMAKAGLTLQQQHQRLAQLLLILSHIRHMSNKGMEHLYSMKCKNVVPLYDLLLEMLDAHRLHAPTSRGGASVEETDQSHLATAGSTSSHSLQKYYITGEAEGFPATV

[9] = tested on: KLK3; settings: C4-2 cells, 50 μM CH223191 or 30 μM PP2 alone or in combination, 72 h, normalized to L-19
Description: as §1, §2, §3

[10] = biological target: T2, AhR (Homo sapiens, UniProt P35869); settings: even at 100 micromolar; cited from earlier work
T2 sequence (P35869 11-848): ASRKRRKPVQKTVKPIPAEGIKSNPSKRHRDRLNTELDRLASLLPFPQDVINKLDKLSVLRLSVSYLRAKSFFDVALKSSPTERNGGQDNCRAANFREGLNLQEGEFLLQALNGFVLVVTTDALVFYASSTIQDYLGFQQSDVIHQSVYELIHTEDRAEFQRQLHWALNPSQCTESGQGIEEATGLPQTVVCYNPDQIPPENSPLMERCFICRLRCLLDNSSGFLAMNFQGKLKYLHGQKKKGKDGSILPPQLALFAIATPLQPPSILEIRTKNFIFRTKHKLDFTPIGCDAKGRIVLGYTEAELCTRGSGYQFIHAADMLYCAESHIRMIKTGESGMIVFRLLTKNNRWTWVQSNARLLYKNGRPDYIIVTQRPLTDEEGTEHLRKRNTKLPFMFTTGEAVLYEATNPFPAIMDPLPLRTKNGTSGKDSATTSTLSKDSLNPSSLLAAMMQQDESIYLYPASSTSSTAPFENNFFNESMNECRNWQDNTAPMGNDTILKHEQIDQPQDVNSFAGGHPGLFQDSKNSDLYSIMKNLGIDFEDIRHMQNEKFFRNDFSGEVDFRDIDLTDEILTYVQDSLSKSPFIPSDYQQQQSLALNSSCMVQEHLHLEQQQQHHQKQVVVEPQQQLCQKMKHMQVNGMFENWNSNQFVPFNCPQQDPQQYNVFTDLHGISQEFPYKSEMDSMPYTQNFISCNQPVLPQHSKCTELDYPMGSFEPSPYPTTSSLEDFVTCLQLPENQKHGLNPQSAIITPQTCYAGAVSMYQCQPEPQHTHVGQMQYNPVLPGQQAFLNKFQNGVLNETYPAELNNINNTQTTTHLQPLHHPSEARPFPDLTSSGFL

[11] = tested on: AhR; assay: Cignal XRE luciferase reporter assay in C4-2 cells; format: cell-based, human; settings: C4-2 cells transfected with XRE reporter, FIG. 2A
Description: XRE and ARE Binding: 4×10^4 Cells were plated in a 96 well plate. C4-2 cells were transfected with XRE and ARE reporter, as well as with positive and negative control reporter plasmids using attractene. After 16 hours of transfection, media was changed to standard assay media (DMEM+0.5% FBS+0.1 mM NEAA). Cells were grown for an additional 8 hours under normal cell conditions. After 24 hours of transfection, treat the cells and harvested cells 18 hours after treatment. A dual luciferase assay was performed after 42 hours of transfection, and promoter activity values are expressed as arbitrary florescence units (AFU). Experiments were performed in triplicate and the standard error is indicated.
The Cignal XRE and ARE luciferase reporter assays were utilized to determine the activity of AhR and AR signaling pathways in androgen independent (C4-2) prostate cancer cells in the presence and absence of inhibitors. C4-2 cells were transfected with an XRE reporter plasmid & ARE reporter plasmid, as well as with positive and negative control reporter plasmids using attractene. Following transfection, treatments were added to each appropriate plate. A dual luciferase assay was performed and promoter activity values are expressed as arbitrary florescence units (AFU).

[12] = biological target: T2, AhR; settings: cited from earlier work

reduction of CYP1B1 gene expression compared to control [2]: more than twofold
Compound: Cc1ccccc1/N=N/c1ccc(NC(=O)c2ccnn2C)c(C)c1 [CH223191, 2-Methyl-2H-pyrazole-3-carboxylic acid (2-methyl-4-o-tolylazo-phenyl)-amide]
reduction of AR gene expression [1]: 60%
reduction of AR promoter activity compared to DMSO in ARE binding assay [3]: 70%
reduction of AhR gene expression compared to control [4]: more than twofold
growth of C4-2 cells ([5]; 48 and 72 hours): significantly inhibited
decrease in overall growth rate compared to DMSO ([5]; after 72 hours of exposure): 25%
presence of AR in the nucleus (AR nuclear localization) [6]: reduced
percent of cells in the G0/G1 phase of the cell cycle [7]: increase
affinity for the estrogen receptor [8]: no affinity
decrease in KLK3 mRNA expression [9]: 65%
stimulation of AhR-dependent transcription (agonist activity) [10]: did not stimulate
decrease in AhR promoter activity (XRE binding) compared to DMSO [11]: 30%
TCDD-mediated nuclear translocation and DNA binding of AhR [12]: inhibited
